From ChEMBL document CHEMBL6120963, “Discovery of Novel PROTAC SIRT6 Degraders with Potent Efficacy against Hepatocellular Carcinoma” (J Med Chem, 2024)
The source made the active and inactive calls. No cut-off for these calls is given here.

Tests used:
[1] = biological target: T1, Protein cereblon/NAD-dependent protein deacylase sirtuin-6 (Homo sapiens, UniProt Q8N6T7+Q96SW2); experiment: PROTAC activity at CRBN/SIRT6 in human SK-HEP1 cells assessed as induction of SIRT6 degradation at 2 to 3 uM incubated for 36 hrs by Western blot analysis; type: cell-based; settings: dose 2-3 µM
Target sequence in this assay (Q8N6T7 2-355 limits assumed): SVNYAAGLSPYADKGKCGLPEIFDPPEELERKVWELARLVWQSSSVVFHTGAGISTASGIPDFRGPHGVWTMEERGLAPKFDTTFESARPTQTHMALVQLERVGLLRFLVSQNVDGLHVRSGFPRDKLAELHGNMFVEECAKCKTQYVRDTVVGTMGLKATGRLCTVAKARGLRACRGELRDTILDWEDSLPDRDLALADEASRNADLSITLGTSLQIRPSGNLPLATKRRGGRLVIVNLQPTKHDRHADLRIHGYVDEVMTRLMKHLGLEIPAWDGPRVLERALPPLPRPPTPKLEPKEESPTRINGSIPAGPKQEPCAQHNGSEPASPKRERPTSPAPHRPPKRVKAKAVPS
Target sequence in this assay (Q96SW2 whole entry partner): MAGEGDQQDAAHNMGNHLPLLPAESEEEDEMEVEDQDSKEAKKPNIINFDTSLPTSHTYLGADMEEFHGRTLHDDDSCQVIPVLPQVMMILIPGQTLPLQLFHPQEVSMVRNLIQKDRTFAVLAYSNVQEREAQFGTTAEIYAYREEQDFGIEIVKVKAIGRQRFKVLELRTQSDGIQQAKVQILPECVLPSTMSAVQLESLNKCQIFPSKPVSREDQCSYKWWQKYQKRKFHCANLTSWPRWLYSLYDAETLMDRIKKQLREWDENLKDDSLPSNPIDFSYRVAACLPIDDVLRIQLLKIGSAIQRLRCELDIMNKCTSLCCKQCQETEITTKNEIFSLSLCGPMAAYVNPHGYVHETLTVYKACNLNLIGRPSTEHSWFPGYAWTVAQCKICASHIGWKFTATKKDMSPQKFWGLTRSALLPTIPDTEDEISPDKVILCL

[2] = biological target: T1, Protein cereblon/NAD-dependent protein deacylase sirtuin-6; experiment: PROTAC activity at CRBN/SIRT6 in human SK-HEP1 cells assessed as induction of SIRT6 degradation incubated for 36 hrs by Western blot analysis; type: cell-based
Target sequence in this assay (Q8N6T7 whole entry): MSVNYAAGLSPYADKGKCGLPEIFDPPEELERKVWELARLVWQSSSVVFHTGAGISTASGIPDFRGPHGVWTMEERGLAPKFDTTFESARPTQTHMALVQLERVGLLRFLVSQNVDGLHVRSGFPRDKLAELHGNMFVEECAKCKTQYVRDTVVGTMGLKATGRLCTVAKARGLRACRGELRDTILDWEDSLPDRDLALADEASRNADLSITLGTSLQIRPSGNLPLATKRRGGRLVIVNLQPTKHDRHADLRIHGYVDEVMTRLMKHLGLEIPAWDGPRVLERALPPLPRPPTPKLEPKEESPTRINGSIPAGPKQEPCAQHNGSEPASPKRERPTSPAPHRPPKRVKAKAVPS
Target sequence in this assay (Q96SW2 whole entry): as the sequence (Q96SW2 whole entry partner) above

[3] = biological target: T1, Protein cereblon/NAD-dependent protein deacylase sirtuin-6; experiment: PROTAC activity at CRBN/SIRT6 in human SK-HEP1 cells assessed as increase in H3K9Ac level incubated for 36 hrs by Western blot analysis; type: cell-based; settings: dose 0.002-1 µM
Target sequence in this assay (Q8N6T7 2-355 limits assumed): as the sequence (Q8N6T7 2-355 limits assumed) above
Target sequence in this assay (Q96SW2 whole entry partner): as the sequence (Q96SW2 whole entry partner) above

SK-HEP1 [4] = experiment: Effect on H3K18Ac expression in human SK-HEP1 cells at 0.002 to 1 uM incubated for 36 hrs by Western blot analysis; type: functional, cell-based; settings: dose 0.002-1 µM
[5] = biological target: T1, Protein cereblon/NAD-dependent protein deacylase sirtuin-6; experiment: PROTAC activity at CRBN/SIRT6 in human SK-HEP1 cells assessed as induction of SIRT6 degradation at 1 uM incubated for 24 to 36 hrs by Western blot analysis; type: cell-based; settings: time 24-36 hrs
Target sequence in this assay (Q8N6T7 2-355 limits assumed): as the sequence (Q8N6T7 2-355 limits assumed) above
Target sequence in this assay (Q96SW2 whole entry partner): as the sequence (Q96SW2 whole entry partner) above

SK-HEP1 [6] = experiment: Inhibition of colony formation in human SK-HEP1 cells at 5 to 10 uM incubated for 10 to 14 days with replacement of medium containing compounds on every 3 days by crystal violet staining based analysis; type: functional, cell-based; settings: dose 5-10 µM, time 10-14 day
SK-HEP1 [7] = experiment: Inhibition of colony formation in human SK-HEP1 cells at 2.5 uM incubated for 10 to 14 days with replacement of medium containing compounds on every 3 days in presence of sorafenib by crystal violet staining based analysis; type: functional, cell-based; settings: time 10-14 day
SK-HEP1 [8] = experiment: Inhibition of colony formation in human SK-HEP1 cells at 2.5 uM incubated for 10 to 14 days with replacement of medium containing compounds on every 3 days combined with irradiation (3 Gy) by crystal violet staining based analysis; type: functional, cell-based; settings: time 10-14 day
SK-HEP1 [9] = experiment: Induction of cell cycle arrest in human SK-HEP1 cells assessed as accumulation at G2/M phase incubated for 72 hrs by PI staining based flow cytometry; type: functional; settings: dose 2.5-10 µM
SK-HEP1 [10] = experiment: Induction of apoptosis in human SK-HEP1 cells at 2.5 uM incubated for 72 hrs in presence of CPT by Annexin V-FITC/PI staining based flow cytometry; type: functional, cell-based
SK-HEP1 [11] = experiment: Induction of apoptosis in human SK-HEP1 cells at 2.5 uM incubated for 72 hrs in presence of sorafenib by Annexin V-FITC/PI staining based flow cytometry; type: functional, cell-based
SK-HEP1 [12] = experiment: Effect of SIRT6 mRNA expression in human SK-HEP1 cells at 2.5 uM incubated for 36 hrs by RT-qPCR analysis; type: functional, cell-based
SK-HEP1 [13] = experiment: Effect of CSTB mRNA expression in human SK-HEP1 cells at 2.5 uM incubated for 36 hrs by RNA sequencing analysis; type: functional, cell-based
SK-HEP1 [14] = experiment: Effect of TFRC mRNA expression in human SK-HEP1 cells at 2.5 uM incubated for 36 hrs by RNA sequencing analysis; type: functional, cell-based
SK-HEP1 [15] = experiment: Effect of CDK15 mRNA expression in human SK-HEP1 cells at 2.5 uM incubated for 36 hrs by RNA sequencing analysis; type: functional, cell-based
SK-HEP1 [16] = experiment: Effect of POSTN mRNA expression in human SK-HEP1 cells at 2.5 uM incubated for 36 hrs by RNA sequencing analysis; type: functional, cell-based
SK-HEP1 [17] = experiment: Effect of ABI3BP mRNA expression in human SK-HEP1 cells at 2.5 uM incubated for 36 hrs by RNA sequencing analysis; type: functional, cell-based
SK-HEP1 [18] = experiment: Effect of genes related to cell apoptosis in human SK-HEP1 cells at 2.5 uM incubated for 36 hrs by GSEA analysis; type: functional, cell-based
SK-HEP1 [19] = experiment: Downregulation of TEDC1 expression in human SK-HEP1 cells at 2.5 uM incubated for 36 hrs; type: functional, cell-based
[20] = biological target: T1, Protein cereblon/NAD-dependent protein deacylase sirtuin-6; experiment: PROTAC activity at CRBN/SIRT6 in human SK-HEP1 cells assessed as induction of SIRT6 degradation at 2.5 uM incubated for 36 hrs by Western blot analysis; type: cell-based
Target sequence in this assay (Q8N6T7 2-355 limits assumed): as the sequence (Q8N6T7 2-355 limits assumed) above
Target sequence in this assay (Q96SW2 whole entry partner): as the sequence (Q96SW2 whole entry partner) above

[21] = biological target: T1, Protein cereblon/NAD-dependent protein deacylase sirtuin-6; experiment: PROTAC activity at CRBN/SIRT6 in human SK-HEP1 cells assessed as disruption of CHD4 recruitment to DSB sites at 2.5 uM incubated for 36 hrs followed by sorafenib treatment for 4 hrs by Western blot analysis; type: cell-based; settings: time 40.0 hrs
Target sequence in this assay (Q8N6T7 2-355 limits assumed): as the sequence (Q8N6T7 2-355 limits assumed) above
Target sequence in this assay (Q96SW2 whole entry partner): as the sequence (Q96SW2 whole entry partner) above

[22] = biological target: T1, Protein cereblon/NAD-dependent protein deacylase sirtuin-6; experiment: PROTAC activity at CRBN/SIRT6 in human SK-HEP1 cells assessed as disruption of CHD4 recruitment to DSB sites at 2.5 uM incubated for 36 hrs followed by CPT treatment for 4 hrs by Western blot analysis; type: cell-based; settings: time 40.0 hrs
Target sequence in this assay (Q8N6T7 2-355 limits assumed): as the sequence (Q8N6T7 2-355 limits assumed) above
Target sequence in this assay (Q96SW2 whole entry partner): as the sequence (Q96SW2 whole entry partner) above

[23] = biological target: T1, Protein cereblon/NAD-dependent protein deacylase sirtuin-6; experiment: PROTAC activity at CRBN/SIRT6 in human U2OS cells with DNA repair assessed as inhibition of CHD4 loading onto chromatin incubated for 36 hrs by FACS analysis; type: cell-based
SK-HEP1 [24] = experiment: Induction of DNA damage in human SK-HEP1 cells assessed as long tail moment incubated for 36 hrs followed by irradiation (10 Gy) for 6 hrs by comet assay; type: functional, cell-based
[25] = Toxicity in BALB/c nude mouse xenografted with human SK-HEP1 cells assessed as body weight loss at 10 mg/kg treated for 28 to 30 days; type: organism-based; settings: in vivo, time 28-30 day
[26] = Toxicity in BALB/c nude mouse xenografted with human SK-HEP1 cells assessed as pathological damage in spleen at 10 mg/kg treated for 28 to 30 days by H and E staining based analysis; type: organism-based; settings: in vivo, time 28-30 day
[27] = Toxicity in BALB/c nude mouse xenografted with human SK-HEP1 cells assessed as pathological damage in lungs at 10 mg/kg treated for 28 to 30 days by H and E staining based analysis; type: organism-based; settings: in vivo, time 28-30 day
[28] = Toxicity in BALB/c nude mouse xenografted with human SK-HEP1 cells assessed as pathological damage in heart at 10 mg/kg treated for 28 to 30 days under irradiation (3 Gy) by H and E staining based analysis; type: organism-based; settings: in vivo, time 28-30 day
[29] = Toxicity in BALB/c nude mouse xenografted with human SK-HEP1 cells assessed as pathological damage in spleen at 10 mg/kg treated for 28 to 30 days under irradiation (3 Gy) by H and E staining based analysis; type: organism-based; settings: in vivo, time 28-30 day
[30] = Toxicity in BALB/c nude mouse xenografted with human SK-HEP1 cells assessed as histopathological abnormalities in heart at 10 mg/kg treated for 28 to 30 days in presence of sorafenib by H and E staining based analysis; type: organism-based; settings: in vivo, time 28-30 day
[31] = Toxicity in BALB/c nude mouse xenografted with human SK-HEP1 cells assessed as histopathological abnormalities in spleen at 10 mg/kg treated for 28 to 30 days in presence of sorafenib by H and E staining based analysis; type: organism-based; settings: in vivo, time 28-30 day
[32] = Toxicity in BALB/c nude mouse xenografted with human SK-HEP1 cells assessed as histopathological abnormalities in spleen at 10 mg/kg treated for 28 to 30 days under irradiation (3 Gy) by H and E staining based analysis; type: organism-based; settings: in vivo, time 28-30 day
SK-HEP1 [33] = experiment: Induction of apoptosis in human SK-HEP1 cells xenografted in BALB/c nude mouse assessed as increase in cleaved caspase-3 level at 10 mg/kg treated for 28 to 30 days under irradiation (3 Gy); type: functional, organism-based; settings: time 28-30 day

For `Nc1cc(N2CCN(CC3CCN(c4cc5c(cc4F)C(=O)N(C4CCC(=O)NC4=O)C5=O)CC3)CC2)ccc1[N+](=O)[O-]` (stereo not drawn), the Activity [1] was “Active”, the DC50 [2] was 45.3 nM and the Activity [3] was “Dose-dependent-effect”. The Activity (SK-HEP1 [4]) was “No effect”, the Activity [5] was “Active; Reached A Plateau After 36 Hrs Of Treatment, But A Dramatic Reduction Observed” and the inhibition (SK-HEP1 [6]) was “Active”. For the same compound, the inhibition (SK-HEP1 [7]) was “Active; Exhibited Superior To Compound Alone”, the inhibition (SK-HEP1 [8]) was “Active; Exhibited Superior To Compound Alone” and the Activity (SK-HEP1 [9]) was “Dose-dependent-effect”. For the same compound, the Activity (SK-HEP1 [10]) was “Active”, the Activity (SK-HEP1 [11]) was “Active” and the Activity (SK-HEP1 [12]) was “Active; Only Slight Downregulation Observed”. For the same compound, the Activity (SK-HEP1 [13]) was “Active”, the Activity (SK-HEP1 [14]) was “Active” and the Activity (SK-HEP1 [15]) was “Active”. The Activity (SK-HEP1 [16]) was “Active”, the Activity (SK-HEP1 [17]) was “Active” and the Activity (SK-HEP1 [18]) was “Active”. For the same compound, the Activity (SK-HEP1 [19]) was “Active”, the Activity [20] was “Active” and the Activity [21] was “Active”. For the same compound, the Activity [22] was “Active”, the inhibition [23] was “Active; Results In Decrease In Hr And Nhej Efficiencies” and the Activity (SK-HEP1 [24]) was “Active”. The Activity [25] was “Non-toxic”, the Activity [26] was “Non-toxic” and the Activity [27] was “Non-toxic”. The Activity [28] was “Non-toxic”, the Activity [29] was “Non-toxic” and the Activity [30] was “Non-toxic”. For the same compound, the Activity [31] was “Non-toxic”, the Activity [32] was “Non-toxic” and the Activity (SK-HEP1 [33]) was “Active”.
